Test results as given in PubChem BioAssay (NCI).
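Tested at 5 concentrations; 48 h exposure; 96-well plates; endpoints linearly interpolated, else capped at highest concentration. At the TGI there is no net growth.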

Columns and labels:
Test in all cases: growth of human tumour cells (NCI), 48 h
[1] = system: 786-0 renal
[2] = system: A549 NSCLC
[3] = system: ACHN renal
[4] = system: CAKI-1 renal
[5] = system: COLO 205 colon
[6] = system: DLD-1 colon
[7] = system: DMS 114 small cell lung
[8] = system: DMS 273 small cell lung
[9] = system: EKVX NSCLC
[10] = system: HCC-2998 colon
[11] = system: HCT-15 colon
[12] = system: HL-60(TB) leukemia
[13] = system: HOP-18 NSCLC
[14] = system: HOP-62 NSCLC
[15] = system: HOP-92 NSCLC
[16] = system: HT29 colon
[17] = system: IGROV1 ovarian
[18] = system: K-562 leukemia
[19] = system: KM20L2 colon
[20] = system: LOX IMVI melanoma
[21] = system: LXFL 529 NSCLC
[22] = system: M14 melanoma
[23] = system: M19-MEL melanoma
[24] = system: MALME-3M melanoma
[25] = system: NCI-H23 lung
[26] = system: NCI-H460 lung
[27] = system: OVCAR-3 ovarian
[28] = system: OVCAR-4 ovarian
[29] = system: OVCAR-8 ovarian
[30] = system: RXF 393 renal
[31] = system: RXF-631 renal
[32] = system: SF-268 CNS
[33] = system: SF-295 CNS
[34] = system: SK-MEL-28 melanoma
[35] = system: SK-OV-3 ovarian
[36] = system: SN12C renal
[37] = system: SNB-75 CNS
[38] = system: SNB-78 CNS
[39] = system: SW-620 colon
[40] = system: TK-10 renal
[41] = system: U251 CNS
[42] = system: UACC-62 melanoma
[43] = system: UO-31 renal
[44] = system: A498 renal
[45] = system: CCRF-CEM leukemia
[46] = system: HCT-116 colon
[47] = system: KM12 colon
[48] = system: MOLT-4 leukemia
[49] = system: NCI-H226 lung
[50] = system: NCI-H522 lung
[51] = system: OVCAR-5 ovarian
[52] = system: RPMI-8226 leukemia
[53] = system: SF-539 CNS
[54] = system: SK-MEL-2 melanoma
[55] = system: SK-MEL-5 melanoma
[56] = system: SNB-19 CNS
[57] = system: SR leukemia
[58] = system: UACC-257 melanoma
[59] = system: XF 498 CNS
[60] = system: BT-549 breast
[61] = system: DU-145 prostate
[62] = system: HS 578T breast
[63] = system: MCF7 breast
[64] = system: MDA-MB-231 breast
[65] = system: MDA-MB-435
[66] = system: MDA-N
[67] = system: NCI/ADR-RES ovarian
[68] = system: PC-3 prostate
[69] = system: T-47D breast

Compound: CCOC(=O)C1(Cc2ccccc2)CCCCCN1 (stereo not drawn)
- TGI [1]: > 100 µM
- TGI [2]: > 100 µM
- TGI [3]: > 100 µM
- TGI [4]: > 100 µM
- TGI [5]: > 100 µM
- TGI [6]: > 100 µM
- TGI [7]: > 100 µM
- TGI [8]: > 100 µM
- TGI [9]: > 100 µM
- TGI [10]: > 100 µM
- TGI [11]: > 100 µM
- TGI [12]: > 100 µM
- TGI [13]: > 100 µM
- TGI [14]: > 100 µM
- TGI [15]: > 100 µM
- TGI [16]: > 100 µM
- TGI [17]: > 100 µM
- TGI [18]: > 100 µM
- TGI [19]: > 100 µM
- TGI [20]: > 100 µM
- TGI [21]: > 100 µM
- TGI [22]: > 100 µM
- TGI [23]: > 100 µM
- TGI [24]: > 100 µM
- TGI [25]: > 100 µM
- TGI [26]: > 100 µM
- TGI [27]: > 100 µM
- TGI [28]: > 100 µM
- TGI [29]: > 100 µM
- TGI [30]: > 100 µM
- TGI [31]: > 100 µM
- TGI [32]: > 100 µM
- TGI [33]: > 100 µM
- TGI [34]: > 100 µM
- TGI [35]: > 100 µM
- TGI [36]: > 100 µM
- TGI [37]: 92.6 µM
- TGI [38]: > 100 µM
- TGI [39]: > 100 µM
- TGI [40]: > 100 µM
- TGI [41]: > 100 µM
- TGI [42]: > 100 µM
- TGI [43]: > 100 µM

Compound: O=C(O)CCCCCOc1cccnc1/C=N/NC1=NCCN1
- TGI [1]: > 100 µM
- TGI [44]: > 100 µM
- TGI [2]: > 100 µM
- TGI [3]: > 100 µM
- TGI [4]: > 100 µM
- TGI [45]: > 100 µM
- TGI [5]: > 100 µM
- TGI [6]: > 100 µM
- TGI [8]: > 100 µM
- TGI [9]: > 100 µM
- TGI [10]: > 100 µM
- TGI [46]: > 100 µM
- TGI [11]: > 100 µM
- TGI [12]: > 100 µM
- TGI [13]: > 100 µM
- TGI [14]: > 100 µM
- TGI [15]: > 100 µM
- TGI [16]: > 100 µM
- TGI [17]: > 100 µM
- TGI [18]: > 100 µM
- TGI [47]: > 100 µM
- TGI [19]: > 100 µM
- TGI [20]: > 100 µM
- TGI [21]: > 100 µM
- TGI [22]: > 100 µM
- TGI [23]: > 100 µM
- TGI [24]: > 100 µM
- TGI [48]: > 100 µM
- TGI [49]: > 100 µM
- TGI [25]: > 100 µM
- TGI [26]: > 100 µM
- TGI [50]: > 100 µM
- TGI [27]: > 100 µM
- TGI [28]: > 100 µM
- TGI [51]: > 100 µM
- TGI [29]: > 100 µM
- TGI [52]: > 100 µM
- TGI [30]: > 100 µM
- TGI [32]: > 100 µM
- TGI [33]: > 100 µM
- TGI [53]: > 100 µM
- TGI [54]: > 100 µM
- TGI [34]: > 100 µM
- TGI [55]: > 100 µM
- TGI [35]: > 100 µM
- TGI [36]: > 100 µM
- TGI [56]: > 100 µM
- TGI [37]: 91.2 µM
- TGI [38]: > 100 µM
- TGI [57]: > 100 µM
- TGI [39]: > 100 µM
- TGI [40]: > 100 µM
- TGI [41]: > 100 µM
- TGI [58]: > 100 µM
- TGI [42]: > 100 µM
- TGI [43]: > 100 µM
- TGI [59]: > 100 µM

Compound: Cn1ccn2c3nc4ccccc4nc3c(=O)c(C#N)c12
- TGI [1]: > 89.9 µM
- TGI [44]: > 100 µM
- TGI [2]: > 100 µM
- TGI [3]: > 100 µM
- TGI [60]: > 100 µM
- TGI [4]: > 100 µM
- TGI [45]: > 100 µM
- TGI [5]: > 100 µM
- TGI [6]: > 100 µM
- TGI [7]: > 100 µM
- TGI [8]: > 100 µM
- TGI [61]: > 100 µM
- TGI [9]: > 100 µM
- TGI [10]: > 100 µM
- TGI [46]: > 100 µM
- TGI [11]: > 100 µM
- TGI [12]: > 100 µM
- TGI [13]: > 100 µM
- TGI [15]: > 100 µM
- TGI [62]: > 100 µM
- TGI [16]: > 100 µM
- TGI [17]: > 100 µM
- TGI [18]: > 100 µM
- TGI [47]: > 100 µM
- TGI [20]: > 100 µM
- TGI [21]: > 100 µM
- TGI [22]: > 100 µM
- TGI [23]: > 100 µM
- TGI [24]: > 100 µM
- TGI [63]: > 100 µM
- TGI [64]: > 100 µM
- TGI [65]: > 100 µM
- TGI [66]: > 100 µM
- TGI [48]: > 100 µM
- TGI [49]: > 100 µM
- TGI [25]: > 100 µM
- TGI [26]: > 100 µM
- TGI [50]: > 100 µM
- TGI [67]: > 81.8 µM
- TGI [27]: > 100 µM
- TGI [28]: > 100 µM
- TGI [51]: > 100 µM
- TGI [29]: > 100 µM
- TGI [68]: > 100 µM
- TGI [52]: > 100 µM
- TGI [30]: > 100 µM
- TGI [32]: > 100 µM
- TGI [33]: > 100 µM
- TGI [53]: > 100 µM
- TGI [54]: > 100 µM
- TGI [34]: > 100 µM
- TGI [55]: > 13.4 µM
- TGI [35]: > 100 µM
- TGI [36]: > 100 µM
- TGI [56]: > 100 µM
- TGI [37]: > 100 µM
- TGI [38]: > 100 µM
- TGI [57]: > 100 µM
- TGI [39]: > 100 µM
- TGI [69]: > 100 µM
- TGI [40]: > 100 µM
- TGI [41]: > 100 µM
- TGI [58]: > 100 µM
- TGI [42]: > 100 µM
- TGI [43]: > 100 µM
- TGI [59]: > 100 µM

Compound: O=c1cc2ccccc2nn1Cc1ccccc1Cl
- TGI [1]: > 100 µM
- TGI [44]: > 100 µM
- TGI [2]: > 100 µM
- TGI [3]: > 100 µM
- TGI [4]: > 100 µM
- TGI [45]: > 100 µM
- TGI [5]: > 100 µM
- TGI [6]: > 100 µM
- TGI [7]: > 100 µM
- TGI [8]: > 100 µM
- TGI [9]: > 100 µM
- TGI [10]: > 100 µM
- TGI [46]: > 100 µM
- TGI [11]: > 100 µM
- TGI [13]: > 100 µM
- TGI [14]: > 100 µM
- TGI [15]: > 100 µM
- TGI [16]: > 100 µM
- TGI [17]: > 100 µM
- TGI [18]: > 100 µM
- TGI [47]: > 100 µM
- TGI [19]: > 100 µM
- TGI [20]: > 100 µM
- TGI [22]: > 100 µM
- TGI [23]: > 100 µM
- TGI [24]: > 100 µM
- TGI [49]: > 100 µM
- TGI [25]: > 100 µM
- TGI [26]: > 100 µM
- TGI [27]: > 100 µM
- TGI [28]: > 100 µM
- TGI [51]: > 100 µM
- TGI [29]: > 100 µM
- TGI [52]: > 100 µM
- TGI [32]: > 100 µM
- TGI [33]: > 100 µM
- TGI [53]: > 100 µM
- TGI [54]: > 100 µM
- TGI [34]: > 100 µM
- TGI [55]: > 100 µM
- TGI [35]: > 100 µM
- TGI [36]: > 100 µM
- TGI [56]: > 100 µM
- TGI [37]: 93.8 µM
- TGI [38]: > 100 µM
- TGI [39]: > 100 µM
- TGI [40]: > 100 µM
- TGI [41]: > 100 µM
- TGI [58]: > 100 µM
- TGI [42]: > 100 µM
- TGI [43]: > 100 µM
- TGI [59]: > 100 µM
